Results on 6 compounds are retold here after article PMC10671360, “In Silico and In Vitro Study towards the Rational Design of 4,4′-Disarylbisthiazoles as a Selective α-Synucleinopathy Biomarker” (International Journal of Molecular Sciences, 2023).

Series [1] addresses tau (Homo sapiens, UniProt P10636). More on the design: method as in PMID 12657667, PMID 32098280, PMID 18221373. The settings on record: [^3H]PiB; cited from earlier work.
For series [2], the target named is α-syn (Homo sapiens, UniProt P37840). More on the design: method as in PMID 12657667, PMID 32098280, PMID 18221373. The conditions noted are these: [^3H]PiB; cited from earlier work.
Series [3] addresses tau fibrils (Homo sapiens, UniProt P10636). The series can be described thus: Competition binding assay against [^3H]PiB, tau fibrils. Here is the method: Recombinant tau monomer (R&D systems, Minneapolis, MN, USA) was dissolved in 20 mM of Tris HCl, pH 8.0, 100 mM of NaCl, 25 μM of low-MW heparin, and 0.5 mM of dithiothreitol to a final concentration of 300 µg/mL. The mixture was incubated with shaking at 900 rpm at 37 °C for 48 h. To separate the non-aggregated monomers from the formed fibrils, the reaction mixture was centrifuged at 12,000× g for 5 min, and the resulting pellet was washed three times with 500 μL of 20 mM Tris-HCl, pH 7.4. The supernatants from the three centrifugation steps were combined, and the concentration of the monomer in the resulting supernatant was determined in a BCA assay(Thermo Fisher Scientific, Waltham, MA, USA) (with a BSA standard curve). Determination of the concentration of fibrils formed was carried out by subtracting the amount of tau peptide monomer in the supernatant from the initial amount used for fibrillation. The pellets of the fibrils obtained above (Section 4.2.1) were resuspended in 20 mM of Tris-HCl, pH 7.4 and diluted as needed for the binding assays. A fixed concentration of [^3H]DCVJ (10 nM) and α-synuclein aggregates (125 nM), prepared as described above (Section 4.2.3), was used with different final concentrations of the DABTAs from 0.01 to 100 nM (see SI Figure S1). The experiment was carried out in quintuplicate for each concentration. The mixture was incubated for 2 h in a final volume of 200 μL per well after dilution with 20 mM of Tris-HCl, pH 7.4. The incubated mixtures were filtered through a Perkin Elmer GF/B glass filter via a TOMTEC cell harvester and immediately washed thrice with 1 mL of deionized water. The filters containing the bound ligands were dried and afterwards mixed with 3 mL of BetaPlate Scint solution (Perkin Elmer Life Sciences, Waltham, MA, USA) and left there for 2 h before counting in a Wallac 1450 MicroBeta TriLux Liquid Scintillation Counter (PerkinElmer Life Sciences, Waltham, MA, USA). For the determination of the inhibition constants, data were analyzed using GraphPad Prism software (version 7.0) to obtain IC50 values by fitting the data to the equation Y = bottom + (top − bottom)/(1 + 10(x − log IC50)). Ki values were calculated from IC50 values using the equation Ki = IC50/(1 + [radioligand]/Kd). […] Further protocol was carried out as for [^3H]DCVJ (see SI Figure S3). […] Further procedures followed the same already described in Section 4.2.3.1 (See SI Figure S4).

Series [4] addresses T1, Aβ1−42 fibrils (Homo sapiens, UniProt P05067).
T1 construct: 1 mg of β-amyloid1–42 peptide (Abcam, Cambridge, UK); purchased Abcam
Nature of the series: Competition binding assay against [^3H]PiB, Aβ1−42 fibrils. The settings on record: read-out: Ki Aβ. Here is the method:
After the dissolution of 1 mg of β-amyloid1–42 peptide (Abcam, Cambridge, UK) in 50 μL of DMSO, 925 μL of Milli-Q® water was added to it, and the mixture was stirred. Finally, 25 μL of 1M Tris HCl, pH 7.4 was added to bring the final peptide concentration to 1 mg/mL. The mixture was then left to incubate at 37 °C for 30 h with shaking at 900 rpm. To separate the non-aggregated monomers from the formed fibrils, the reaction mixture was centrifuged at 12,000× g for 5 min, and the resulting pellet was washed three times with 500 μL of 20 mM Tris-HCl, pH 7.4. The supernatants from the three centrifugation steps were combined, and the concentration of the monomer in the resulting supernatant was determined in a BCA assay (Thermo Fisher Scientific, Waltham, MA, USA) (with a BSA standard curve). Determination of the concentration of fibrils formed was carried out by subtracting the amount of β-amyloid1−42 peptide monomer in the supernatant from the initial amount used for fibrillation.
(§1) The pellets of the fibrils obtained above (Section 4.2.1) were resuspended in 20 mM of Tris-HCl, pH 7.4 and diluted as needed for the binding assays.
(§2) A fixed concentration of [^3H]DCVJ (10 nM) and α-synuclein aggregates (125 nM), prepared as described above (Section 4.2.3), was used with different final concentrations of the DABTAs from 0.01 to 100 nM (see SI Figure S1). The experiment was carried out in quintuplicate for each concentration. The mixture was incubated for 2 h in a final volume of 200 μL per well after dilution with 20 mM of Tris-HCl, pH 7.4. The incubated mixtures were filtered through a Perkin Elmer GF/B glass filter via a TOMTEC cell harvester and immediately washed thrice with 1 mL of deionized water. The filters containing the bound ligands were dried and afterwards mixed with 3 mL of BetaPlate Scint solution (Perkin Elmer Life Sciences, Waltham, MA, USA) and left there for 2 h before counting in a Wallac 1450 MicroBeta TriLux Liquid Scintillation Counter (PerkinElmer Life Sciences, Waltham, MA, USA). For the determination of the inhibition constants, data were analyzed using GraphPad Prism software (version 7.0) to obtain IC50 values by fitting the data to the equation Y = bottom + (top − bottom)/(1 + 10(x − log IC50)). Ki values were calculated from IC50 values using the equation Ki = IC50/(1 + [radioligand]/Kd). […] Further protocol was carried out as for [^3H]DCVJ (see SI Figure S3).
Further procedures followed the same already described in Section 4.2.3.1 (See SI Figure S4).

Details of series [5]: method as in PMID 35572127. The conditions noted are these: cited from earlier work.
Series [6] concerns the target T2, recombinant α-syn fibrils (Homo sapiens, UniProt P37840).
T2 construct: made in house
The series can be described thus: Competition binding assay against [^3H]DCVJ, α-syn fibrils. The conditions noted are these: ratio of Ki, [^3H]DCVJ was used. Here is the method:
The incubation of purified recombinant α-synuclein monomer (10 mg/mL) obtained as described by Uzuegbunam was carried out in PBS (pH 7.4) at 37 °C. The solution was left shaking at 900 rpm in an Eppendorf Thermomixer for up to 84 h. Determination of the concentration of the formed fibrils (α-syn) was carried out following the centrifugation of the reaction vial at 12,000× g for 5 min. The pellet obtained was washed thrice with 20 mM of Tris-HCl, pH 7.4. The supernatants from the three centrifugation steps were combined, and the concentration of the monomer in the resulting supernatant was determined in a BCA assay (Thermo Fisher Scientific, Waltham, MA, USA) (with a BSA standard curve). Determination of the concentration of α-syn was carried out by subtracting the amount of α-synuclein monomer in the supernatant from the initial amount used for fibrillation.
as §1, §2

For series [7], the target named is T2, recombinant α-syn fibrils. The series can be described thus: Competition binding assay against [^3H]PiB, α-syn fibrils. The settings on record: for Selectivity Aβ/α-syn / Selectivity tau/α-syn: ratio of Ki, [^3H]PiB was used.
Series [8] is described as follows: Solubility in the incubation medium of the binding assays. Type of series: physicochemical. The conditions noted are these: incubation buffer of the binding assays.

Entries after “also recorded” stand apart in the source; their conditions may differ.

T1 sequence (P05067 672-713): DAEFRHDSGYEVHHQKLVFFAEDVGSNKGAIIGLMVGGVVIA
Chain of tau (P10636 2-758): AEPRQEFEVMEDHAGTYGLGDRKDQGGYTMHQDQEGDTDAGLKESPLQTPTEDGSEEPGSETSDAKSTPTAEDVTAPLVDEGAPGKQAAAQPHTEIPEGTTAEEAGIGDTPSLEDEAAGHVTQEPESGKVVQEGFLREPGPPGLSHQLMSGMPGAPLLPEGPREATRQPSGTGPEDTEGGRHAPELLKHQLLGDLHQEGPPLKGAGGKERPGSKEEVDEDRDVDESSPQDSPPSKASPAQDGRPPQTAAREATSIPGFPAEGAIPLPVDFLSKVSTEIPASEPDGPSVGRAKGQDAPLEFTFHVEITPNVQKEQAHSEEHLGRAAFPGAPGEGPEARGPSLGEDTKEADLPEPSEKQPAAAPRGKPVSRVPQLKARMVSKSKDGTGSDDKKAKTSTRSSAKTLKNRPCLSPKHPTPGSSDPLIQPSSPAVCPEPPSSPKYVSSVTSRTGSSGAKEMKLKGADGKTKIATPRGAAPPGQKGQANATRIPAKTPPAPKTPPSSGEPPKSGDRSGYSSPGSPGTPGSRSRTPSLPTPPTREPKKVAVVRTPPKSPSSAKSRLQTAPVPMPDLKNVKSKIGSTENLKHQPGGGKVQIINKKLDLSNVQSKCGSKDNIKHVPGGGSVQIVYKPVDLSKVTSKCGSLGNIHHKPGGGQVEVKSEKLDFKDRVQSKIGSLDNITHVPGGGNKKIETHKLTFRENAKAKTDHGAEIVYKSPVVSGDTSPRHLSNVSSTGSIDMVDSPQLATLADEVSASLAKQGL
Chain of tau fibrils (P10636 2-758): as above

For the compound `[3H]C([3H])([3H])Nc1ccc(-c2nc3ccc(O)cc3s2)cc1` [[^3H]PiB], the results for the Kd in series [1] and in series [2] were 117 nM and 4.9 nM, respectively.
Regarding `Fc1ccc(-c2csc(-c3nc(-c4ccc5c(c4)OCO5)cs3)n2)cn1` [d6, 4-(Benzo[d][1,3]dioxol-5-yl)-4′-(6-fluoropyridin-3-yl)-2,2′-bithiazole], the inhibitory constant (Ki) in series [3] amounted to 799 nM; in series [4], 151 nM; in series [7], 2.51 nM. Besides, in series [5], the “brain uptake and washout” value was “excellent brain uptake and washout”. For the same compound, the “Selectivity Aβ/α-syn” value in series [6] is on record as 196.0; in series [7] it was 60.1. The “Selectivity tau/α-syn” value in series [6] turned out to be 798.3; in series [7], 318.2.
For `Fc1ccc(-c2csc(-c3nc(-c4cnc5c(c4)OCO5)cs3)n2)cn1` [d8, 6-(4′-(6-Fluoropyridin-3-yl)-[2,2′-bithiazol]-4-yl)-[1,3]dioxolo[4,5-b]pyridine], in series [4], the Ki was determined as 127 nM. Further, the “brain uptake and washout” value in series [5] is “excellent brain uptake and washout”. For the same compound, in series [6], the “Selectivity Aβ/α-syn” value is listed as 3863.0 and the “Selectivity tau/α-syn” value is given as >10,000.0. For the same compound, in series [7], the Ki is 1.01 nM, the “Selectivity Aβ/α-syn” value was found to be 125.8 and the “Selectivity tau/α-syn” value is on record as over 990.1.
Take `FCCOCCOc1cnc(-c2csc(-c3nc(-c4cnc5c(c4)OCO5)cs3)n2)nc1` [f8, 6-(4′-(5-(2-(2-Fluoroethoxy)ethoxy)pyrimidin-2-yl)-[2,2′-bithiazol]-4-yl)-[1,3]dioxolo[4,5-b]pyridine]: in series [8], the “solubility in the incubation medium” value is on record as “low solubility; also recorded: decreased solubility”. The Ki in series [7] came to 2.3 nM.
As to `COc1ccc(-c2csc(-c3nc(-c4cnc5c(c4)OCO5)cs3)n2)cc1OC` [f18, 6-(4′-(3,4-Dimethoxyphenyl)-[2,2′-bithiazol]-4-yl)-[1,3]dioxolo[4,5-b]pyridine], the “solubility in the incubation medium” value in series [8] was “low solubility; also recorded: decreased solubility”. Also, the Ki in series [7] was 4.99 nM.
Regarding `ICCOCCOCCOc1cnc(-c2csc(-c3nc(-c4cnc5c(c4)OCO5)cs3)n2)nc1` [h13, 6-(4′-(5-(2-(2-(2-Iodoethoxy)ethoxy)ethoxy)pyrimidin-2-yl)-[2,2′-bithiazol]-4-yl)-[1,3]dioxolo[4,5-b]pyridine], in series [8], the “solubility in the incubation medium” value is “low solubility; also recorded: decreased solubility”. For the same compound, the Ki in series [7] is 1.17 nM.

The term Kd denotes a measure of binding affinity in units of concentration. In general, Ki refers to a measure of affinity in units of concentration, obtained from inhibition or displacement.
